The values below come from patent US20200131156A1, “ARYLSULFONYLPYROLECARBOXAMIDE DERIVATIVES AS Kv3 POTASSIUM CHANNEL ACTIVATORS” (H. Lundbeck A/S, priority 2018, published 2020).

This assay addresses T1, hKv3.1b (Homo sapiens, UniProt P48547).
T1 construct: expressed in transfected cells
T1 sequence (P48547 1-585 isoform P48547-2): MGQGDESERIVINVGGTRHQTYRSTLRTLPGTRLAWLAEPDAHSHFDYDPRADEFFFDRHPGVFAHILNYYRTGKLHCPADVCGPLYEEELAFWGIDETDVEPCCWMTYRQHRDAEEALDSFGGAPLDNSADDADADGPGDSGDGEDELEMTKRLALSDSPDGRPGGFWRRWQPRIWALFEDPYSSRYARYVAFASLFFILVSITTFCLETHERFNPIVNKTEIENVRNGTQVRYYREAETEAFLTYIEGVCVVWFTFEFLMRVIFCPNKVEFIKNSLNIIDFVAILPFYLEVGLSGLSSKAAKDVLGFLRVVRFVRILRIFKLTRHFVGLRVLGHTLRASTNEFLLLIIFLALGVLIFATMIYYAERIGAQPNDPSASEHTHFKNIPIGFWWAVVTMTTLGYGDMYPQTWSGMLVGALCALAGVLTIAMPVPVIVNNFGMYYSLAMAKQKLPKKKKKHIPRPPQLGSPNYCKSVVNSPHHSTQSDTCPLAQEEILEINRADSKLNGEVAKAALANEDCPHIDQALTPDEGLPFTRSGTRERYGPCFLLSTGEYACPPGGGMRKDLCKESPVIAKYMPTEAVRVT
Description: Automated patch clamp (QPatch-16x) on HEK-293 cells stably expressing hKv3.1b. It counts as cell-based. The following applies: for ECdelta5 mV: concentration needed to shift the activation threshold 5 mV; for Threshold Shift: maximum absolute hyperpolarizing shift of activation threshold at tested concentrations 0.37-30 μM. The essentials: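 Whole-cell automated patch clamp, extracellular pH 7.4, 4 mM Na2ATP intracellular; holding −80 mV, 200 ms steps −70 to +10 mV. Five ascending concentrations (0.37–30 μM) per cell, ~3 min each, 0.33% DMSO vehicle. Activation threshold (5% of vehicle peak at 10 mV) shift fitted sigmoidally; ECdelta5 mV read from curve.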
Background: The patch-clamp technique gives a direct electrical read-out from membranes.

For the compound `Cn1ccc(CNC(=O)c2ccn(S(=O)(=O)c3ccccc3)c2)n1` [Compound 82, 1-(benzenesulfonyl)-N-[(1-methyl-1H-pyrazol-3-yl)methyl]-1H-pyrrole-3-carboxamide], the “ECdelta5 mV” value was 4100 nM and the “Threshold Shift” value was 14 mV.

Consider `Cc1ccc(CNC(=O)c2ccn(S(=O)(=O)c3ccccc3)c2)nc1` [Compound 83, 1-(benzenesulfonyl)-N-[(5-methylpyridin-2-yl)methyl]-1H-pyrrole-3-carboxamide], for which the “ECdelta5 mV” value is reported as 5000 nM and the “Threshold Shift” value amounted to 13 mV.

As to `Cc1cc(CNC(=O)c2ccn(S(=O)(=O)c3ccccc3)c2)on1` [Compound 84, 1-(benzenesulfonyl)-N-[(3-methyl-1,2-oxazol-5-yl)methyl]-1H-pyrrole-3-carboxamide], the “ECdelta5 mV” value is on record as 4600 nM and the “Threshold Shift” value is 12 mV.

Take `Cc1ccc(CNC(=O)c2ccn(S(=O)(=O)c3ccc(F)cc3)c2)cn1` [Compound 85, 1-(4-fluorobenzene-1-sulfonyl)-N-[(6-methylpyridin-3-yl)methyl]-1H-pyrrole-3-carboxamide]: the “ECdelta5 mV” value stood at 3100 nM and the “Threshold Shift” value is 18 mV.

In the case of `Cc1ccc(S(=O)(=O)n2cc(C(=O)NCc3cnc(C)cn3)cc2F)cc1` [Compound 87, 5-fluoro-1-(4-methylbenzene-1-sulfonyl)-N-[(5-methylpyrazin-2-yl)methyl]-1H-pyrrole-3-carboxamide], the “ECdelta5 mV” value worked out at 4000 nM and the “Threshold Shift” value was 15 mV.

For `Cc1ccc(S(=O)(=O)n2ccc(C(=O)NCc3cnc(C)cn3)c2F)cc1` [Compound 88, 2-fluoro-1-(4-methylbenzene-1-sulfonyl)-N-[(5-methylpyrazin-2-yl)methyl]-1H-pyrrole-3-carboxamide], the “ECdelta5 mV” value came out at 2000 nM and the “Threshold Shift” value came to 23 mV.

Regarding `Cc1ccc(S(=O)(=O)n2ccc(C(=O)NCc3cnc(Cl)cn3)c2)cc1` [Compound 89, N-[(5-chloropyrazin-2-yl)methyl]-1-(4-methylbenzene-1-sulfonyl)-1H-pyrrole-3-carboxamide], the “ECdelta5 mV” value worked out at 660 nM and the “Threshold Shift” value came out at 23 mV.

Regarding `Cc1cnc(CNC(=O)c2ccn(S(=O)(=O)c3ccc(C(F)(F)F)cc3)c2)cn1` [Compound 91, N-[(5-methylpyrazin-2-yl)methyl]-1-[4-(trifluoromethyl)benzene-1-sulfonyl]-1H-pyrrole-3-carboxamide], the “ECdelta5 mV” value is 1800 nM and the “Threshold Shift” value is given as 20 mV.

With `Cc1cnc(CNC(=O)c2ccn(S(=O)(=O)c3ccc(F)c(Cl)c3)c2)cn1` [Compound 92, 1-(3-chloro-4-fluorobenzene-1-sulfonyl)-N-[(5-methylpyrazin-2-yl)methyl]-1H-pyrrole-3-carboxamide], the “ECdelta5 mV” value is recorded as 3400 nM and the “Threshold Shift” value is recorded as 12 mV.

For the compound `Cc1cnc(CNC(=O)c2ccn(S(=O)(=O)c3ccc(C(F)F)cc3)c2)cn1` [Compound 93, 1-[4-(difluoromethyl)benzene-1-sulfonyl]-N-[(5-methylpyrazin-2-yl)methyl]-1H-pyrrole-3-carboxamide], the “ECdelta5 mV” value worked out at 1500 nM and the “Threshold Shift” value was 34 mV.

Turning to `Cc1ccc(S(=O)(=O)n2ccc(C(=S)NCc3cnc(C)cn3)c2)cc1` [Compound 94, 1-(4-methylbenzene-1-sulfonyl)-N-[(5-methylpyrazin-2-yl)methyl]-1H-pyrrole-3-carbothioamide], the “ECdelta5 mV” value was 1100 nM and the “Threshold Shift” value was 19 mV.

`Cc1ccc(S(=O)(=O)n2ccc(C(=O)NCc3cnc(C)cn3)c2)c(F)c1` [Compound 95, 1-(2-fluoro-4-methyl-phenyl)sulfonyl-N-[(5-methylpyrazin-2-yl)methyl]pyrrole-3-carboxamide]: the “ECdelta5 mV” value turned out to be 1100 nM and the “Threshold Shift” value is reported as 24 mV.

`COc1ccc(S(=O)(=O)n2ccc(C(=O)NCc3cnc(C)cn3)c2)c(F)c1` [Compound 96, 1-(2-fluoro-4-methoxy-phenyl)sulfonyl-N-[(5-methylpyrazin-2-yl)methyl]pyrrole-3-carboxamide]: the “ECdelta5 mV” value stood at 1300 nM and the “Threshold Shift” value is 35 mV.

`COc1ccc(S(=O)(=O)n2ccc(C(=O)NCc3cnc(C)cn3)c2)cc1F` [Compound 97, 1-(3-fluoro-4-methoxy-phenyl)sulfonyl-N-[(5-methylpyrazin-2-yl)methyl]pyrrole-3-carboxamide]: the “ECdelta5 mV” value worked out at 3200 nM and the “Threshold Shift” value is 18 mV.

`COc1ccc(S(=O)(=O)n2ccc(C(=O)NCc3cnc(C)cn3)c2)c(C)c1` [Compound 98, 1-(4-methoxy-2-methyl-phenyl)sulfonyl-N-[(5-methylpyrazin-2-yl)methyl]pyrrole-3-carboxamide]: the “ECdelta5 mV” value is 710 nM and the “Threshold Shift” value was 36 mV.

On to `Cc1cnc(CNC(=O)c2ccn(S(=O)(=O)c3c(C)cc(F)cc3C)c2)cn1` [Compound 99, 1-(4-fluoro-2,6-dimethyl-phenyl)sulfonyl-N-[(5-methylpyrazin-2-yl)methyl]pyrrole-3-carboxamide], for which the “ECdelta5 mV” value turned out to be 1900 nM and the “Threshold Shift” value was 21 mV.

Turning to `Cc1cnc(CNC(=O)c2ccn(S(=O)(=O)c3cc(C)c(F)c(C)c3)c2)cn1` [Compound 100, 1-(4-fluoro-3,5-dimethyl-phenyl)sulfonyl-N-[(5-methylpyrazin-2-yl)methyl]pyrrole-3-carboxamide], the “ECdelta5 mV” value was 4300 nM and the “Threshold Shift” value is given as 15 mV.

With `Cc1cnc(CNC(=O)c2ccn(S(=O)(=O)c3ccc(F)c(C)c3)c2)cn1` [Compound 101, 1-(4-fluoro-3-methyl-phenyl)sulfonyl-N-[(5-methylpyrazin-2-yl)methyl]pyrrole-3-carboxamide], the “ECdelta5 mV” value was found to be 2000 nM and the “Threshold Shift” value stood at 23 mV.

As for `Cc1cnc(CNC(=O)c2ccn(S(=O)(=O)c3ccc4c(c3)CCO4)c2)cn1` [Compound 102, 1-(2,3-dihydrobenzofuran-5-ylsulfonyl)-N-[(5-methylpyrazin-2-yl)methyl]pyrrole-3-carboxamide], the “ECdelta5 mV” value is recorded as 1400 nM and the “Threshold Shift” value stood at 32 mV.

For `Cc1cc(C)c(S(=O)(=O)n2ccc(C(=O)NCc3cnc(C)cn3)c2)c(C)c1` [Compound 103, N-[(5-methylpyrazin-2-yl)methyl]-1-(2,4,6-trimethylphenyl)sulfonyl-pyrrole-3-carboxamide], the “ECdelta5 mV” value was found to be 720 nM and the “Threshold Shift” value was determined as 24 mV.

In the case of `COc1ccc(S(=O)(=O)n2ccc(C(=O)NCc3cnc(C)cn3)c2)c(Cl)c1` [Compound 104, 1-(2-chloro-4-methoxy-phenyl)sulfonyl-N-[(5-methylpyrazin-2-yl)methyl]pyrrole-3-carboxamide], the “ECdelta5 mV” value came to 1000 nM and the “Threshold Shift” value stood at 31 mV.

For `COc1ccc(S(=O)(=O)n2ccc(C(=O)NCc3cnc(C)cn3)c2)c(Br)c1` [Compound 105, 1-(2-bromo-4-methoxy-phenyl)sulfonyl-N-[(5-methylpyrazin-2-yl)methyl]pyrrole-3-carboxamide], the “ECdelta5 mV” value was found to be 1200 nM and the “Threshold Shift” value is reported as 24 mV.

In the case of `CNc1cnc(CNC(=O)c2ccn(S(=O)(=O)c3ccc(C)cc3F)c2)cn1` [Compound 106, 1-(2-fluoro-4-methylbenzene-1-sulfonyl)-N-{[5-(methylamino)pyrazin-2-yl]methyl}-1H-pyrrole-3-carboxamide], the “ECdelta5 mV” value is reported as 550 nM and the “Threshold Shift” value is reported as 42 mV.

Regarding `CNc1cnc(CNC(=O)c2ccn(S(=O)(=O)c3ccc(OC(F)F)cc3)c2)cn1` [Compound 107, 1-[4-(difluoromethoxy)benzene-1-sulfonyl]-N-{[5-(methylamino)pyrazin-2-yl]methyl}-1H-pyrrole-3-carboxamide], the “ECdelta5 mV” value amounted to 1800 nM and the “Threshold Shift” value is 36 mV.

For `Cc1ccc(S(=O)(=O)n2ccc(C(=O)NCc3cnn(C)n3)c2)cc1` [Compound 109, 1-(4-methylbenzene-1-sulfonyl)-N-[(2-methyl-2H-1,2,3-triazol-4-yl)methyl]-1H-pyrrole-3-carboxamide], the “ECdelta5 mV” value came to 1200 nM and the “Threshold Shift” value is reported as 29 mV.

Regarding `COc1ncc(CNC(=O)c2ccn(S(=O)(=O)c3ccc(C)cc3F)c2)cn1` [Compound 110, 1-(2-fluoro-4-methylbenzene-1-sulfonyl)-N-[(2-methoxypyrimidin-5-yl)methyl]-1H-pyrrole-3-carboxamide], the “ECdelta5 mV” value came out at 1300 nM and the “Threshold Shift” value came to 24 mV.

In the case of `Cc1cnc(CNC(=O)c2ccn(S(=O)(=O)c3ccccc3)c2)c(C)n1` [Compound 111, 1-(benzenesulfonyl)-N-[(3,5-dimethylpyrazin-2-yl)methyl]-1H-pyrrole-3-carboxamide], the “ECdelta5 mV” value came out at 2900 nM and the “Threshold Shift” value is recorded as 21 mV.
